How the values were obtained:
ORYSAT (Rice, Tebonnet) = experiment: Postemergence herbicidal evaluation; assay type: in vivo, Oryza sativa, (L.) Tebonnet; conditions: postemergence
In short: (§1)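 First, seedlings were raised for around two weeks. Next, test material in 50/50 acetone/water containing 0.5% TWEEN 20 was sprayed through a nozzle at 40 psi, equivalent to about 0.0156–0.500 kg/ha. Finally, after 4–5 weeks in the greenhouse, plants were rated 0–9.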

ZEAMX (Corn, Field) [1] = experiment: Preemergence herbicidal evaluation; assay type: in vivo, Zea mays; conditions: rated 4-5 weeks after treatment
In short: (§2)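 Visual 0-9 rating vs control (stand, vigor, malformation, size, chlorosis, overall appearance), scored 4-5 wk after spraying. Seeded soil cups were treated preemergence with compound in aqueous acetone, ~0.0156-0.500 kg/ha equivalent.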

CYPSE (Flatsedge) = experiment: Preemergence weed control under flooded paddy conditions; assay type: in vivo, Cyperus serotinus; conditions: rated 3-4 weeks after treatment
In short: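 Using flooded silt loam (water 1.5 to 3 cm deep), seeds sown in the top 0.5 cm were exposed preemergence to compound pipetted into the flood at about 0.0313 to 0.500 kg/ha. Effects were scored 0-9 by eye three to four weeks later.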

ZEAMX (Corn, Field) [2] = experiment: Postemergence herbicidal evaluation; assay type: in vivo, Zea mays; conditions: postemergence
In short: as §1

SETVI (Foxtail, Green) [3] = experiment: Preemergence herbicidal evaluation; assay type: in vivo, Setaria viridis; conditions: rated 4-5 weeks after treatment
In short: as §2

[4] = test system: TRZAWR (Wheat, Winter, cv Riband); experiment: Preemergence herbicidal evaluation; assay type: in vivo, Triticum aestivum; conditions: rated 4-5 weeks after treatment
In short: as §2

ECHCG (Barnyardgrass) = experiment: Preemergence herbicidal evaluation; assay type: in vivo, Echinochloa crus-galli; conditions: rated 4-5 weeks after treatment
In short: as §2

SETVI (Foxtail, Green) [5] = experiment: Postemergence herbicidal evaluation; assay type: in vivo, Setaria viridis; conditions: postemergence
In short: as §1

[6] = test system: ECHORC (Watergrass (Calif.)); experiment: Preemergence weed control under flooded paddy conditions; assay type: in vivo, Echinochloa oryzoides; conditions: rated 3-4 weeks after treatment
In short: (§3)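 Herbicidal effect is scored visually on a 0-9 scale against an untreated control, three to four weeks after compounds are pipetted into the flood water (1.5 to 3 cm deep) over seeds planted in silt loam at 0.5 cm depth. Rates: about 0.0313 to 0.500 kg/ha.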

CYPIR (Rice Flatsedge) = experiment: as above; assay type: in vivo, Cyperus iria; conditions: rated 3-4 weeks after treatment
In short: as §3

Structure (SMILES): C=CCN1C(=O)C(CC(=O)NO)SC1=Nc1cc(-n2c(=O)cc(C(F)(F)F)n(C)c2=O)c(F)cc1Cl (stereo not drawn) [Compound 161, 3-Allyl-2-{{2-chloro-5-[3,6-dihydro-3-methyl-2,6-dioxo-4-(trifluoromethyl)-1(2H)-pyrimidinyl]-4-fluorophenyl}imino}-4-oxo-5-thiazolidineacetohydroxamic acid]
- herbicidal rating ORYSAT (ORYSAT (Rice, Tebonnet); rate 0.0156 kg/ha): 2.5
- herbicidal rating ORYSAT (ORYSAT (Rice, Tebonnet); rate 0.0313 kg/ha): 3.0
- herbicidal rating ORYSAT (ORYSAT (Rice, Tebonnet); rate 0.0625 kg/ha): 3.5
- herbicidal rating ORYSAT (ORYSAT (Rice, Tebonnet); rate 0.1250 kg/ha): 3.5
- Preemergence herbicidal rating ZEAMX (ZEAMX (Corn, Field) [1]; 0.0156 kg/ha): 0.0
- Preemergence herbicidal rating ZEAMX (ZEAMX (Corn, Field) [1]; 0.0313 kg/ha): 0.0
- Preemergence herbicidal rating ZEAMX (ZEAMX (Corn, Field) [1]; 0.0625 kg/ha): 1.0
- Preemergence herbicidal rating ZEAMX (ZEAMX (Corn, Field) [1]; 0.1250 kg/ha): 5.0
- Preemergence herbicidal rating ZEAMX (ZEAMX (Corn, Field) [1]; 0.2500 kg/ha): 6.0
- Preemergence herbicidal rating ZEAMX (ZEAMX (Corn, Field) [1]; 0.5000 kg/ha): 9.0
- herbicidal effect rating, CYPSE (CYPSE (Flatsedge); 0.0313 kg/ha): 0.0
- herbicidal effect rating, CYPSE (CYPSE (Flatsedge); 0.0625 kg/ha): 0.0
- herbicidal effect rating, CYPSE (CYPSE (Flatsedge); 0.1250 kg/ha): 0.0
- herbicidal effect rating, CYPSE (CYPSE (Flatsedge); 0.2500 kg/ha): 3.0
- herbicidal rating ZEAMX (ZEAMX (Corn, Field) [2]; rate 0.0156 kg/ha): 4.5
- herbicidal rating ZEAMX (ZEAMX (Corn, Field) [2]; rate 0.0313 kg/ha): 6.5
- herbicidal rating ZEAMX (ZEAMX (Corn, Field) [2]; rate 0.0625 kg/ha): 7.0
- herbicidal rating ZEAMX (ZEAMX (Corn, Field) [2]; rate 0.1250 kg/ha): 7.5
- Preemergence herbicidal rating SETVI (SETVI (Foxtail, Green) [3]; 0.0156 kg/ha): 0.0
- Preemergence herbicidal rating SETVI (SETVI (Foxtail, Green) [3]; 0.0313 kg/ha): 0.0
- Preemergence herbicidal rating SETVI (SETVI (Foxtail, Green) [3]; 0.0625 kg/ha): 7.0
- Preemergence herbicidal rating SETVI (SETVI (Foxtail, Green) [3]; 0.1250 kg/ha): 9.0
- Preemergence herbicidal rating SETVI (SETVI (Foxtail, Green) [3]; 0.2500 kg/ha): 9.0
- Preemergence herbicidal rating SETVI (SETVI (Foxtail, Green) [3]; 0.5000 kg/ha): 9.0
- Preemergence herbicidal rating TRZAWR ([4]; 0.0156 kg/ha): 0.0
- Preemergence herbicidal rating TRZAWR ([4]; 0.0313 kg/ha): 0.0
- Preemergence herbicidal rating TRZAWR ([4]; 0.0625 kg/ha): 1.0
- Preemergence herbicidal rating TRZAWR ([4]; 0.1250 kg/ha): 4.0
- Preemergence herbicidal rating TRZAWR ([4]; 0.2500 kg/ha): 7.0
- Preemergence herbicidal rating TRZAWR ([4]; 0.5000 kg/ha): 9.0
- Preemergence herbicidal rating ECHCG (ECHCG (Barnyardgrass); 0.0156 kg/ha): 0.0
- Preemergence herbicidal rating ECHCG (ECHCG (Barnyardgrass); 0.0313 kg/ha): 0.0
- Preemergence herbicidal rating ECHCG (ECHCG (Barnyardgrass); 0.0625 kg/ha): 0.0
- Preemergence herbicidal rating ECHCG (ECHCG (Barnyardgrass); 0.1250 kg/ha): 4.0
- Preemergence herbicidal rating ECHCG (ECHCG (Barnyardgrass); 0.2500 kg/ha): 7.0
- Preemergence herbicidal rating ECHCG (ECHCG (Barnyardgrass); 0.5000 kg/ha): 9.0
- herbicidal rating SETVI (SETVI (Foxtail, Green) [5]; rate 0.0156 kg/ha): 0.0
- herbicidal rating SETVI (SETVI (Foxtail, Green) [5]; rate 0.0313 kg/ha): 1.0
- herbicidal rating SETVI (SETVI (Foxtail, Green) [5]; rate 0.0625 kg/ha): 7.0
- herbicidal rating SETVI (SETVI (Foxtail, Green) [5]; rate 0.1250 kg/ha): 7.0
- herbicidal effect rating, ECHORC ([6]; 0.0313 kg/ha): 0.0
- herbicidal effect rating, ECHORC ([6]; 0.0625 kg/ha): 0.0
- herbicidal effect rating, ECHORC ([6]; 0.1250 kg/ha): 2.0
- herbicidal effect rating, ECHORC ([6]; 0.2500 kg/ha): 4.0
- herbicidal effect rating, CYPIR (CYPIR (Rice Flatsedge); 0.0313 kg/ha): 3.0
- herbicidal effect rating, CYPIR (CYPIR (Rice Flatsedge); 0.0625 kg/ha): 4.0
- herbicidal effect rating, CYPIR (CYPIR (Rice Flatsedge); 0.1250 kg/ha): 5.0
- herbicidal effect rating, CYPIR (CYPIR (Rice Flatsedge); 0.2500 kg/ha): 6.0

Structure (SMILES): CN1C(=O)C(CC(=O)NO)SC1=Nc1cc(-n2c(=O)cc(C(F)(F)F)n(C)c2=O)c(F)cc1Cl (stereo not drawn) [Compound 162, 2-{{2-Chloro-5-[3,6-dihydro-3-methyl-2,6-dioxo-4-(trifluoromethyl)-1(2H)-pyrimidinyl]-4-fluorophenyl}imino}-3-methyl-4-oxo-5-thiazolidineacetohydroxamic acid]
- herbicidal rating ORYSAT (ORYSAT (Rice, Tebonnet); rate 0.0156 kg/ha): 0.5
- herbicidal rating ORYSAT (ORYSAT (Rice, Tebonnet); rate 0.0313 kg/ha): 1.5
- herbicidal rating ORYSAT (ORYSAT (Rice, Tebonnet); rate 0.0625 kg/ha): 1.5
- Preemergence herbicidal rating ZEAMX (ZEAMX (Corn, Field) [1]; 0.0156 kg/ha): 6.0
- Preemergence herbicidal rating ZEAMX (ZEAMX (Corn, Field) [1]; 0.0313 kg/ha): 7.0
- Preemergence herbicidal rating ZEAMX (ZEAMX (Corn, Field) [1]; 0.0625 kg/ha): 9.0
- Preemergence herbicidal rating ZEAMX (ZEAMX (Corn, Field) [1]; 0.1250 kg/ha): 9.0
- Preemergence herbicidal rating ZEAMX (ZEAMX (Corn, Field) [1]; 0.2500 kg/ha): 9.0
- herbicidal effect rating, CYPSE (CYPSE (Flatsedge); 0.1250 kg/ha): 9.0
- herbicidal effect rating, CYPSE (CYPSE (Flatsedge); 0.2500 kg/ha): 9.0
- herbicidal rating ZEAMX (ZEAMX (Corn, Field) [2]; rate 0.0156 kg/ha): 4.5
- herbicidal rating ZEAMX (ZEAMX (Corn, Field) [2]; rate 0.0313 kg/ha): 5.0
- herbicidal rating ZEAMX (ZEAMX (Corn, Field) [2]; rate 0.0625 kg/ha): 5.5
- Preemergence herbicidal rating SETVI (SETVI (Foxtail, Green) [3]; 0.0156 kg/ha): 9.0
- Preemergence herbicidal rating SETVI (SETVI (Foxtail, Green) [3]; 0.0313 kg/ha): 9.0
- Preemergence herbicidal rating SETVI (SETVI (Foxtail, Green) [3]; 0.0625 kg/ha): 9.0
- Preemergence herbicidal rating SETVI (SETVI (Foxtail, Green) [3]; 0.1250 kg/ha): 9.0
- Preemergence herbicidal rating SETVI (SETVI (Foxtail, Green) [3]; 0.2500 kg/ha): 9.0
- Preemergence herbicidal rating TRZAWR ([4]; 0.0156 kg/ha): 0.0
- Preemergence herbicidal rating TRZAWR ([4]; 0.0313 kg/ha): 3.0
- Preemergence herbicidal rating TRZAWR ([4]; 0.0625 kg/ha): 7.0
- Preemergence herbicidal rating TRZAWR ([4]; 0.1250 kg/ha): 7.0
- Preemergence herbicidal rating TRZAWR ([4]; 0.2500 kg/ha): 9.0
- Preemergence herbicidal rating ECHCG (ECHCG (Barnyardgrass); 0.0156 kg/ha): 1.0
- Preemergence herbicidal rating ECHCG (ECHCG (Barnyardgrass); 0.0313 kg/ha): 4.0
- Preemergence herbicidal rating ECHCG (ECHCG (Barnyardgrass); 0.0625 kg/ha): 8.0
- Preemergence herbicidal rating ECHCG (ECHCG (Barnyardgrass); 0.1250 kg/ha): 9.0
- Preemergence herbicidal rating ECHCG (ECHCG (Barnyardgrass); 0.2500 kg/ha): 9.0
- herbicidal rating SETVI (SETVI (Foxtail, Green) [5]; rate 0.0156 kg/ha): 0.0
- herbicidal rating SETVI (SETVI (Foxtail, Green) [5]; rate 0.0313 kg/ha): 3.0
- herbicidal rating SETVI (SETVI (Foxtail, Green) [5]; rate 0.0625 kg/ha): 4.0
- herbicidal effect rating, ECHORC ([6]; 0.0313 kg/ha): 6.0
- herbicidal effect rating, ECHORC ([6]; 0.0625 kg/ha): 7.0
- herbicidal effect rating, ECHORC ([6]; 0.1250 kg/ha): 8.0
- herbicidal effect rating, ECHORC ([6]; 0.2500 kg/ha): 8.0
- herbicidal effect rating, CYPIR (CYPIR (Rice Flatsedge); 0.0313 kg/ha): 5.0
- herbicidal effect rating, CYPIR (CYPIR (Rice Flatsedge); 0.0625 kg/ha): 6.0
- herbicidal effect rating, CYPIR (CYPIR (Rice Flatsedge); 0.1250 kg/ha): 6.0
- herbicidal effect rating, CYPIR (CYPIR (Rice Flatsedge); 0.2500 kg/ha): 9.0
